Assay results from PubChem BioAssay (NCI).
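Growth conditions: 96-well plates. Treatment: test compound, 48 hours, 5 concentrations. Analysis: linear interpolation between bracketing concentrations; unreached endpoints set to highest concentration. TGI: total growth inhibition.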

Tests used:
Test in all cases: NCI tumour cell line growth inhibition, 48 h
TK-10 renal = test system: TK-10 renal
IGROV1 ovarian = test system: IGROV1 ovarian
COLO 205 colon = test system: COLO 205 colon
ACHN renal = test system: ACHN renal
UO-31 renal = test system: UO-31 renal
A549 NSCLC = test system: A549 NSCLC
UACC-62 melanoma = test system: UACC-62 melanoma
SN12C renal = test system: SN12C renal
KM12 colon = test system: KM12 colon
OVCAR-4 ovarian = test system: OVCAR-4 ovarian
U251 CNS = test system: U251 CNS
HL-60(TB) leukemia = test system: HL-60(TB) leukemia
OVCAR-5 ovarian = test system: OVCAR-5 ovarian
MOLT-4 leukemia = test system: MOLT-4 leukemia
SK-MEL-2 melanoma = test system: SK-MEL-2 melanoma
RPMI-8226 leukemia = test system: RPMI-8226 leukemia
NCI-H460 lung = test system: NCI-H460 lung
HOP-92 NSCLC = test system: HOP-92 NSCLC
SF-539 CNS = test system: SF-539 CNS
NCI-H226 lung = test system: NCI-H226 lung
SF-268 CNS = test system: SF-268 CNS
OVCAR-8 ovarian = test system: OVCAR-8 ovarian
RXF 393 renal = test system: RXF 393 renal
HCT-116 colon = test system: HCT-116 colon
SR leukemia = test system: SR leukemia
SF-295 CNS = test system: SF-295 CNS
CCRF-CEM leukemia = test system: CCRF-CEM leukemia
HOP-18 NSCLC = test system: HOP-18 NSCLC
SK-MEL-5 melanoma = test system: SK-MEL-5 melanoma
CAKI-1 renal = test system: CAKI-1 renal
HOP-62 NSCLC = test system: HOP-62 NSCLC
NCI-H522 lung = test system: NCI-H522 lung
SNB-75 CNS = test system: SNB-75 CNS
SW-620 colon = test system: SW-620 colon
SK-OV-3 ovarian = test system: SK-OV-3 ovarian
HCT-15 colon = test system: HCT-15 colon
DLD-1 colon = test system: DLD-1 colon
M14 melanoma = test system: M14 melanoma
786-0 renal = test system: 786-0 renal
SK-MEL-28 melanoma = test system: SK-MEL-28 melanoma
A498 renal = test system: A498 renal
LXFL 529 NSCLC = test system: LXFL 529 NSCLC
DMS 114 small cell lung = test system: DMS 114 small cell lung
K-562 leukemia = test system: K-562 leukemia
NCI-H23 lung = test system: NCI-H23 lung
LOX IMVI melanoma = test system: LOX IMVI melanoma
UACC-257 melanoma = test system: UACC-257 melanoma
MALME-3M melanoma = test system: MALME-3M melanoma
HT29 colon = test system: HT29 colon
M19-MEL melanoma = test system: M19-MEL melanoma
DMS 273 small cell lung = test system: DMS 273 small cell lung
SNB-78 CNS = test system: SNB-78 CNS
OVCAR-3 ovarian = test system: OVCAR-3 ovarian
HCC-2998 colon = test system: HCC-2998 colon

Measured: TGI

Cc1nc2ccccc2c(=O)n1NC(=S)Nc1ccccc1
not listed: SNB-78 CNS | OVCAR-3 ovarian | HCC-2998 colon
> 100 µM: all other assays above

Clc1ccc(C2=NOC(C3CCCCC3)C2)cc1 (configuration not stated)
not listed: RXF 393 renal | CAKI-1 renal | LOX IMVI melanoma
> 100 µM: all other assays above
